Test results published in paper PMC7079008, “Compactness of Protein Folds Alters Disulfide‐Bond Reducibility by Three Orders of Magnitude: A Comprehensive Kinetic Case Study on the Reduction of Differently Sized Tryptophan Cage Model Proteins” (Chembiochem, 2019).

Experiment: TCEP stability in phosphate buffer by 31P NMR
Type: physicochemical
Conditions: 50 mM phosphate buffer, room temperature, over 14 days
Description: Due to the acidic nature of TCEP, to avoid any pH shift, a phosphate buffer (50 mM, pH 7) was used to sustain near‐physiological pH. The groups of Han39 and Whitesides37 described the chemical instability of TCEP above pH 7 in 300–400 mM phosphate buffer.
NMR spectroscopy: All ^1H NMR spectroscopy experiments were performed on a Bruker Avance III 700 MHz spectrometer equipped with a z‐gradient 5 mm probe head operating at 700.13 MHz for ^1H, whereas ^31P NMR spectroscopy experiments were performed on a Bruker Avance 250 spectrometer with a 5 mm SB quad probe head.

SMILES: O=C(O)CCP(CCC(=O)O)CCC(=O)O [TCEP, tris(2‐carboxyethyl)phosphine]
- TCEP oxidation or degradation: no significant spectral changes
